According to paper PMC5592744 (Frontiers in Microbiology, 2017):

How the values were obtained:
Assay type in all cases: biochemical
Conditions in all cases: 76 μM chalcone, FRET assay
[1] = target: V168A-SrtA (Staphylococcus aureus, UniProt Q2FV99, V168A)
[2] = target: I182A-SrtA (Staphylococcus aureus, UniProt Q2FV99, I182A)
[3] = target: R197A-SrtA (Staphylococcus aureus, UniProt Q2FV99, R197A)

Measured: sensitivity of mutant SrtA to chalcone compared with WT-SrtA

O=C(/C=C/c1ccccc1)c1ccccc1 [chalcone]
significantly less sensitive: [1] | [2] | [3]
